From patent US20230255952A1, “METHODS FOR TREATING CHRONIC OBSTRUCTIVE PULMONARY DISEASE” (THERAVANCE BIOPHARMA R&D IP, LLC, priority 2018, published 2023)
Entries after “also recorded” stand apart in the source; their conditions may differ.

Test system: subjects with chronic obstructive pulmonary disease and a low peak inspiratory flow rate
Test: 28-day randomized, double-blind, double-dummy, parallel-group clinical study: once-daily revefenacin by nebulizer vs once-daily tiotropium by dry powder inhaler, lung function
Type: in vivo, human
Settings: for Trough FEV1, LS Difference (SE), REV vs TIO / Trough FVC, LS Difference (SE), REV vs TIO / Trough IC, LS Difference (SE), REV vs TIO: REV 175 μg nebulizer vs TIO 18 μg dry powder inhaler; for Trough FEV1, LS Mean (SE) / Trough FVC, LS Mean (SE) / Trough IC, LS Mean (SE): change from baseline after 28 once-daily doses, TIO 18 μg dry powder inhaler, REV 175 μg nebulizer
Procedure: A 28-day, randomized, double-blind, double-dummy, parallel-group study was conducted to compare once-daily revefenacin (175 μg of revefenacin in 3 mL of an isotonic, sterile aqueous solution containing sodium chloride, citric acid, sodium citrate, and water for injection at pH 5.0) delivered using a nebulizer (Trek S jet nebulizer (PARI, Midlothian, Va., USA) with once-daily tiotropium (18 μg/day) delivered using a dry powder inhaler (Spiriva HandiHaler, Boebringer Ingelheim Pharmaceuticals, Inc., Ridgefield, Conn., USA) on lung function in subjects with chronic obstructive pulmonary disease and a low peak inspiratory flow rate. Subjects with moderate to very severe COPD were allowed to use concurrent respiratory therapy with the exception of other inhaled anticholinergics. The primary endpoint of the study was the change from baseline in trough forced expiratory volume in one second (FEV1) after the 28th dose. Secondary endpoints included the change from baseline in peak FEV1, trough forced vital capacity (FVC), peak FVC and trough inspiratory capacity (IC) as well as the safety and tolerability of revefenacin 175 μg. Inclusion criteria were: age≥40 years; a smoking history≥10 pack years; a diagnosis of COPD (post-bronchodilator FEV1≤80% predicted and FEV/FVC≤70%); peak inspiratory flow rate (PIFR)<60 L/min as measured by IN-CHECK® DIAL device with resistance set to DISKUS® at screening.
In this study, revefenacin (REV) (administered using a nebulizer) or tiotropium (TIC)) (administered using a dry powder inhaler) was dosed once-daily for 28 days, Peak inspiratory flow rates (best of three) were determined at screening, randomization and end of study using the IN-CHECK® DIAL device with the resistance set to a resistance equal or similar to the resistance associated with the DISKUS® device. FEV1, FVC and IC were measured at baseline and/or peak on day 1 and on day 29. Safety was assessed via the collection of adverse events.

[1] = % predicted FEV1 <50% subpopulation, PIFR <60 L/min
[2] = ITT population, all subjects PIFR <60 L/min
[3] = ITT population, all subjects low PIFR, listed as revefenacin
[4] = subjects with low PIFR (<60 L/min) and percent predicted FEV1 <50%, listed as revefenacin

Compound: CN(CCN1CCC(OC(=O)Nc2ccccc2-c2ccccc2)CC1)C(=O)c1ccc(CN2CCC(C(N)=O)CC2)cc1 [REV, 1-(2-{4-[(4-carbamoylpiperidin-1-yl)methyl]-N-methylbenzamido}ethyl) piperidin-4-yl N-([1,1′-biphenyl]-2-yl)carbamate]
- Trough FEV1, LS Difference (SE), REV vs TIO [1]: 47.3 (21.76)
- Trough FVC, LS Difference (SE), REV vs TIO [1]: 99.9 (48.75)
- Trough IC, LS Difference (SE), REV vs TIO [1]: 13.7 (45.43)
- Trough FEV1, LS Mean (SE) [1]: 74.8 (20.85)
- Trough FVC, LS Mean (SE) [1]: 146.5 (46.69)
- Trough IC, LS Mean (SE) [1]: 89.7 (42.85)
- Trough IC, revefenacin by nebulizer compared to tiotropium by dry powder inhaler (in words) (ITT population or subpopulation with low PIFR and percent predicted FEV1 <50%, listed as revefenacin): No differences in trough IC were noted; also recorded: statistically significant difference in trough IC was not observed
- Trough FEV1, LS Difference (SE), REV vs TIO (ITT population, PIFR <60 L/min): 15.7 (22.35)
- Trough FVC, LS Difference (SE), REV vs TIO (ITT population, PIFR <60 L/min): 69.6 (42.90)
- Trough IC, LS Difference (SE), REV vs TIO (ITT population, PIFR <60 L/min): −12.7 (47.38)
- Trough FEV1, LS Mean (SE) [2]: 63.0 (20.17)
- Trough FVC, LS Mean (SE) [2]: 125.4 (38.75)
- Trough IC, LS Mean (SE) [2]: 71.4 (42.33)
- Trough FEV1, revefenacin by nebulizer compared to tiotropium by dry powder inhaler (in words) [3]: did not meet statistical significance nor clinical relevance; also recorded: statistically significant difference in trough FEV1 was not observed
- Trough FVC, revefenacin by nebulizer compared to tiotropium by dry powder inhaler (in words) [3]: did not meet statistical significance nor clinical relevance; also recorded: statistically significant difference in trough FVC was not observed
- Trough FEV1, revefenacin by nebulizer compared to tiotropium by dry powder inhaler (in words) [4]: statistically significant and clinically relevant greater improvements; also recorded: statistically significant difference in trough FEV1 was observed
- Trough FVC, revefenacin by nebulizer compared to tiotropium by dry powder inhaler (in words) [4]: statistically significant and clinically relevant greater improvements; also recorded: statistically significant difference in trough FVC was observed

Compound: C[N+]1(C)[C@@H]2C[C@@H](OC(=O)C(O)(c3cccs3)c3cccs3)C[C@H]1[C@@H]1O[C@@H]12 [TIO, tiotropium, reference compound]
- Trough FEV1, LS Mean (SE) [1]: 27.5 (19.53)
- Trough FVC, LS Mean (SE) [1]: 46.7 (43.56)
- Trough IC, LS Mean (SE) [1]: 76.0 (40.40)
- Trough FEV1, LS Mean (SE) [2]: 47.3 (19.06)
- Trough FVC, LS Mean (SE) [2]: 55.8 (36.62)
- Trough IC, LS Mean (SE) [2]: 84.1 (40.02)
